Test system: not listed separately
Experiment: Half-life in aqueous solution.
Format: ADME

Structure (SMILES) | half-life [h]
CCOc1nc2c(Cl)ccc(Cl)c2c(=O)o1 | 1
CC(C)Nc1nc2cc(NC(=O)C(C)NC(=O)OCc3ccccc3)ccc2c(=O)o1 (stereo not drawn) | 171

Molecular target: T1, Capsid scaffolding protein (Herpes simplex virus (type 1 / strain 17), UniProt P10210)
T1 sequence (P10210 whole entry): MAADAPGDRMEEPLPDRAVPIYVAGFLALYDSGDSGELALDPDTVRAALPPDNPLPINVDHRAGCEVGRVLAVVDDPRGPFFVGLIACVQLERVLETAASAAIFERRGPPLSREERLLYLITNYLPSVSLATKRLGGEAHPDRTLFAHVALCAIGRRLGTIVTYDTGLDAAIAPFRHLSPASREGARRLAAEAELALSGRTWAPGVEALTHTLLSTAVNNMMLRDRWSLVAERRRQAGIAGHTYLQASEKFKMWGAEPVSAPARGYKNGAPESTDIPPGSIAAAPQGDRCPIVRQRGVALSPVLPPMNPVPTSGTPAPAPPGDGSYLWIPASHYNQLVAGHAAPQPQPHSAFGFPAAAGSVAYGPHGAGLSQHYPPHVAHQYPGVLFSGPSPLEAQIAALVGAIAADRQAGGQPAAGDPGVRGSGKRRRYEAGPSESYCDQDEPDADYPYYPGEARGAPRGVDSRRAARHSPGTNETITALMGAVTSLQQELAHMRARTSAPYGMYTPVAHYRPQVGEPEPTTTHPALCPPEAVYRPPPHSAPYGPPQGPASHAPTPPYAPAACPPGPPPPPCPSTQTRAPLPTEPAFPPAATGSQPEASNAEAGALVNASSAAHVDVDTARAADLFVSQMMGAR
Experiment: Inhibitory activity against herpes simplex type 1 protease (HSV-1 pr).

Structure (SMILES) | IC50 [µM]
CC(C)Nc1nc2cc(N)ccc2c(=O)o1 | 55
C[C@H](NC(=O)OCc1ccccc1)c1nc2cc(N)ccc2c(=O)o1 | 150
CCOc1nc2c(Cl)ccc(Cl)c2c(=O)o1 | 1.5
C[C@@H](NC(=O)OCc1ccccc1)c1nc2cccc(F)c2c(=O)o1 | 200
CC(C)Nc1nc2ccccc2c(=O)o1 | 25
CCc1cccc2nc([C@H](C)NC(=O)OCc3ccccc3)oc(=O)c12 | > 300
CCOc1nc2ccccc2c(=O)o1 | 25
Cc1cccc2nc([C@H](C)NC(=O)OCc3ccccc3)oc(=O)c12 | 120
C[C@H](NC(=O)OCc1ccccc1)c1nc2ccccc2c(=O)o1 | 50
CCOc1nc2cccc(CC)c2c(=O)o1 | 20
CC(NC(=O)OCc1ccccc1)C(=O)Nc1ccc2c(=O)oc([C@H](C)NC(=O)OCc3ccccc3)nc2c1 (stereo partly drawn) | 12
CCOc1nc2cccc(Cl)c2c(=O)o1 | 7
CC(C)Nc1nc2cc(NC(=O)C(CC(N)=O)NC(=O)OCc3ccccc3)ccc2c(=O)o1 (stereo not drawn) | 15
COc1ccc(Oc2nc3ccccc3c(=O)o2)cc1 | 2.5
C[C@H](NC(=O)OCc1ccccc1)c1nc2cccc(Cl)c2c(=O)o1 | > 300
CCCCNc1nc2ccccc2c(=O)o1 | 300
CCOc1nc2cccc(F)c2c(=O)o1 | 75
CC(C)Nc1nc2cc(NC(=O)C(C)NC(=O)OCc3ccccc3)ccc2c(=O)o1 (stereo not drawn) | 5
CCOc1nc2cccc(C)c2c(=O)o1 | 15
O=c1oc(Oc2ccccc2)nc2ccccc12 | 10
C=CCOc1nc2ccccc2c(=O)o1 | 15
CC(Nc1nc2ccccc2c(=O)o1)c1ccccc1 (stereo not drawn) | 60
COC(=O)C(C)Nc1nc2ccccc2c(=O)o1 (stereo not drawn) | 25
C[C@H](NC(=O)OCc1ccccc1)c1nc2cccc(F)c2c(=O)o1 | 50
CC(C)COC(=O)Nc1ccc2c(=O)oc(NC(C)C)nc2c1 | 50
O=c1oc(Nc2cccc(F)c2)nc2ccccc12 | > 300
